Assay results published in ChEMBL document CHEMBL2440076, “New triarylpyrazoles as broad-spectrum anticancer agents: design, synthesis, and biological evaluation” (Eur J Med Chem, 2013).

What was measured:
Type in all cases: functional
[1] = Growth inhibition of human HCC2998 cells assessed as cell growth at 5X10'-9 M after 48 hrs by sulforhodamine B assay; conditions: HCC 2998, 48 h, read-out: Activity
SF-268 = assay: Growth inhibition of human SF268 cells assessed as cell growth at 5X10'-5 M after 48 hrs by sulforhodamine B assay; conditions: SF-268, 48 h, read-out: Activity
KM12 = assay: Growth inhibition of human KM12 cells assessed as cell growth at 5X10'-5 M after 48 hrs by sulforhodamine B assay; conditions: KM12, 48 h, read-out: Activity
NCI-H460 = assay: Growth inhibition of human NCI-H460 cells assessed as cell growth at 5X10'-5 M after 48 hrs by sulforhodamine B assay; conditions: NCI-H460, 48 h, read-out: Activity
[2] = Growth inhibition of human Hs 578T cells assessed as cell growth at 5X10'-6 M after 48 hrs by sulforhodamine B assay; conditions: read-out: Activity
PC-3 [3] = assay: Growth inhibition of human PC3 cells assessed as cell growth at 5X10'-6 M after 48 hrs by sulforhodamine B assay; conditions: PC-3, 48 h, read-out: Activity
RPMI-8226 = assay: Growth inhibition of human RPMI8226 cells assessed as cell growth at 5X10'-9 M after 48 hrs by sulforhodamine B assay; conditions: RPMI-8226, 48 h, read-out: Activity
SR = assay: Growth inhibition of human SR cells assessed as cell growth at 5X10'-6 M after 48 hrs by sulforhodamine B assay; conditions: read-out: Activity
K562 = assay: Growth inhibition of human K562 cells assessed as cell growth at 5X10'-6 M after 48 hrs by sulforhodamine B assay; conditions: K562, 48 h, read-out: Activity
SN12C = assay: Growth inhibition of human SN12C cells assessed as cell growth at 5X10'-7 M after 48 hrs by sulforhodamine B assay; conditions: read-out: Activity
IGROV-1 [4] = assay: Growth inhibition of human IGROV1 cells assessed as cell growth at 5X10'-7 M after 48 hrs by sulforhodamine B assay; conditions: IGROV-1, 48 h, read-out: Activity
SK-MEL-5 [5] = assay: Growth inhibition of human SK-MEL-5 cells assessed as cell growth at 5X10'-7 M after 48 hrs by sulforhodamine B assay; conditions: SK-MEL-5, 48 h, read-out: Activity
UACC-257 [6] = assay: Growth inhibition of human UACC257 cells assessed as cell growth at 5X10'-7 M after 48 hrs by sulforhodamine B assay; conditions: UACC-257, 48 h, read-out: Activity
SNB-75 = assay: Growth inhibition of human SNB75 cells assessed as cell growth at 5X10'-7 M after 48 hrs by sulforhodamine B assay; conditions: SNB-75, 48 h, read-out: Activity
HCT-116 = assay: Growth inhibition of human HCT116 cells assessed as cell growth at 5X10'-7 M after 48 hrs by sulforhodamine B assay; conditions: HCT-116, 48 h, read-out: Activity
[7] = Growth inhibition of human HCC2998 cells assessed as cell growth at 5X10'-7 M after 48 hrs by sulforhodamine B assay; conditions: HCC 2998, 48 h, read-out: Activity
COLO 205 = assay: Growth inhibition of human COLO205 cells assessed as cell growth at 5X10'-7 M after 48 hrs by sulforhodamine B assay; conditions: COLO 205, 48 h, read-out: Activity
NCI-H322M = assay: Growth inhibition of human NCI-H322M cells assessed as cell growth at 5X10'-7 M after 48 hrs by sulforhodamine B assay; conditions: read-out: Activity
[8] = Growth inhibition of human Hs 578T cells assessed as cell growth at 5X10'-8 M after 48 hrs by sulforhodamine B assay; conditions: read-out: Activity
PC-3 [9] = assay: Growth inhibition of human PC3 cells assessed as cell growth at 5X10'-8 M after 48 hrs by sulforhodamine B assay; conditions: PC-3, 48 h, read-out: Activity
IGROV-1 [10] = assay: Growth inhibition of human IGROV1 cells assessed as cell growth at 5X10'-8 M after 48 hrs by sulforhodamine B assay; conditions: IGROV-1, 48 h, read-out: Activity
UACC-62 [11] = assay: Growth inhibition of human UACC62 cells assessed as cell growth at 5X10'-8 M after 48 hrs by sulforhodamine B assay; conditions: UACC-62, 48 h, read-out: Activity
M14 = assay: Growth inhibition of human M14 cells assessed as cell growth at 5X10'-8 M after 48 hrs by sulforhodamine B assay; conditions: M14, 48 h, read-out: Activity
SNB-19 = assay: Growth inhibition of human SNB19 cells assessed as cell growth at 5X10'-8 M after 48 hrs by sulforhodamine B assay; conditions: SNB-19, 48 h, read-out: Activity
SW-620 = assay: Growth inhibition of human SW620 cells assessed as cell growth at 5X10'-8 M after 48 hrs by sulforhodamine B assay; conditions: SW-620, 48 h, read-out: Activity
MCF7 = assay: Growth inhibition of human MCF7 cells assessed as cell growth at 5X10'-5 M after 48 hrs by sulforhodamine B assay; conditions: MCF7, 48 h, read-out: Activity
OVCAR-3 = assay: Growth inhibition of human OVCAR3 cells assessed as cell growth at 5X10'-5 M after 48 hrs by sulforhodamine B assay; conditions: OVCAR-3, 48 h, read-out: Activity
UACC-257 [12] = assay: Growth inhibition of human UACC257 cells assessed as cell growth at 5X10'-5 M after 48 hrs by sulforhodamine B assay; conditions: UACC-257, 48 h, read-out: Activity
NCI-H23 = assay: Growth inhibition of human NCI-H23 cells assessed as cell growth at 5X10'-8 M after 48 hrs by sulforhodamine B assay; conditions: NCI-H23, 48 h, read-out: Activity
[13] = Growth inhibition of human Hs 578T cells assessed as cell growth at 5X10'-9 M after 48 hrs by sulforhodamine B assay; conditions: read-out: Activity
A498 = assay: Growth inhibition of human A498 cells assessed as cell growth at 5X10'-9 M after 48 hrs by sulforhodamine B assay; conditions: A498, 48 h, read-out: Activity
[14] = Growth inhibition of human NCI-ADR-RES cells assessed as cell growth at 5X10'-9 M after 48 hrs by sulforhodamine B assay; conditions: read-out: Activity
UACC-62 [15] = assay: Growth inhibition of human UACC62 cells assessed as cell growth at 5X10'-9 M after 48 hrs by sulforhodamine B assay; conditions: UACC-62, 48 h, read-out: Activity
SK-MEL-5 [16] = assay: Growth inhibition of human SK-MEL-5 cells assessed as cell growth at 5X10'-9 M after 48 hrs by sulforhodamine B assay; conditions: SK-MEL-5, 48 h, read-out: Activity
SK-MEL-2 = assay: Growth inhibition of human SK-MEL-2 cells assessed as cell growth at 5X10'-9 M after 48 hrs by sulforhodamine B assay; conditions: SK-MEL-2, 48 h, read-out: Activity
MDA-MB-435 = assay: Growth inhibition of human MDA-MB-435 cells assessed as cell growth at 5X10'-9 M after 48 hrs by sulforhodamine B assay; conditions: MDA-MB-435, 48 h, read-out: Activity
Malme-3M = assay: Growth inhibition of human MALME-3M cells assessed as cell growth at 5X10'-9 M after 48 hrs by sulforhodamine B assay; conditions: read-out: Activity

COc1cc(-c2nn(-c3cccc(NC(=O)Nc4cc(C(F)(F)F)cc(C(F)(F)F)c4)c3)cc2-c2ccncc2)ccc1Cl
growth at 0.005 µM [1]: 102% | growth at 50 µM (SF-268): -43% | growth at 50 µM (KM12): -68% | growth at 50 µM (NCI-H460): -59% | growth at 5 µM [2]: -12% | growth at 5 µM (PC-3 [3]): -20% | growth at 0.005 µM (RPMI-8226): 99% | growth at 5 µM (SR): -9% | growth at 5 µM (K562): -10% | growth at 0.5 µM (SN12C): 75% | growth at 0.5 µM (IGROV-1 [4]): 76% | growth at 0.5 µM (SK-MEL-5 [5]): 74% | growth at 0.5 µM (UACC-257 [6]): 82% | growth at 0.5 µM (SNB-75): 81% | growth at 0.5 µM (HCT-116): 62% | growth at 0.5 µM [7]: 95% | growth at 0.5 µM (COLO 205): 93% | growth at 0.5 µM (NCI-H322M): 83% | growth at 0.05 µM [8]: 93% | growth at 0.05 µM (PC-3 [9]): 90% | growth at 0.05 µM (IGROV-1 [10]): 105% | growth at 0.05 µM (UACC-62 [11]): 93% | growth at 0.05 µM (M14): 107% | growth at 0.05 µM (SNB-19): 91% | growth at 0.05 µM (SW-620): 95% | growth at 50 µM (MCF7): -5% | growth at 50 µM (OVCAR-3): -78% | growth at 50 µM (UACC-257 [12]): -54% | growth at 0.05 µM (NCI-H23): 100% | growth at 0.005 µM [13]: 96% | growth at 0.005 µM (A498): 90% | growth at 0.005 µM [14]: 105% | growth at 0.005 µM (UACC-62 [15]): 97% | growth at 0.005 µM (SK-MEL-5 [16]): 99% | growth at 0.005 µM (SK-MEL-2): 111% | growth at 0.005 µM (MDA-MB-435): 98% | growth at 0.005 µM (Malme-3M): 90%

COc1cc(-c2nn(-c3cccc(NC(=O)c4cccc(C(F)(F)F)c4)c3)cc2-c2ccncc2)ccc1Cl
growth at 0.005 µM [1]: 92% | growth at 50 µM (SF-268): 8% | growth at 50 µM (KM12): 7% | growth at 50 µM (NCI-H460): -10% | growth at 5 µM [2]: 2% | growth at 5 µM (PC-3 [3]): 17% | growth at 0.005 µM (RPMI-8226): 98% | growth at 5 µM (SR): -3% | growth at 5 µM (K562): 9% | growth at 0.5 µM (SN12C): 92% | growth at 0.5 µM (IGROV-1 [4]): 86% | growth at 0.5 µM (SK-MEL-5 [5]): 86% | growth at 0.5 µM (UACC-257 [6]): 87% | growth at 0.5 µM (SNB-75): 79% | growth at 0.5 µM (HCT-116): 92% | growth at 0.5 µM [7]: 105% | growth at 0.5 µM (COLO 205): 102% | growth at 0.5 µM (NCI-H322M): 87% | growth at 0.05 µM [8]: 91% | growth at 0.05 µM (PC-3 [9]): 99% | growth at 0.05 µM (IGROV-1 [10]): 95% | growth at 0.05 µM (UACC-62 [11]): 96% | growth at 0.05 µM (M14): 94% | growth at 0.05 µM (SNB-19): 96% | growth at 0.05 µM (SW-620): 98% | growth at 50 µM (MCF7): 9% | growth at 50 µM (OVCAR-3): -38% | growth at 50 µM (UACC-257 [12]): 48% | growth at 0.05 µM (NCI-H23): 90% | growth at 0.005 µM [13]: 91% | growth at 0.005 µM (A498): 78% | growth at 0.005 µM [14]: 96% | growth at 0.005 µM (UACC-62 [15]): 97% | growth at 0.005 µM (SK-MEL-5 [16]): 98% | growth at 0.005 µM (SK-MEL-2): 96% | growth at 0.005 µM (MDA-MB-435): 96% | growth at 0.005 µM (Malme-3M): 95%
